This note sets out measurements from patent US9642889B2, “Macrocyclic inhibitors of Flaviviridae viruses” (Selcia Limited, priority 2012, dated 2017).

Read-outs that look alike come from different tables or passages of the source.

In one experiment the target is cyclophilin A (Homo sapiens, UniProt P62937). The experiment in a line: Cyclophilin A TR-FRET competitive binding assay. To be noted: competition with CsA-Cy5 for His-tagged CypA, two-hour incubation. As for the experimental part:
Cyclophilin A TR-FRET Competitive Binding Assay
Inhibitor potency was measured using a competitive binding assay with a time-resolved fluorescence resonance energy transfer (TR-FRET) readout. […] An IC50 value was calculated using a four-parameter logistic fit.

Experiment [1] deals with Huh-7 HCV replicon cells (1b replicon). The experiment in a line: anti-HCV activity in Huh-7 cell line harboring a HCV replicon (luciferase readout). Type of experiment: cell-based. To be noted: for Replicon 1b % inhibition at 1 μM: 1b replicon, 1 μM compound.
[2] abbreviates: Hepatitis C virus, Huh-7, 72 h, inhibition of viral replication, Huh-7 HCV replicon cells, 3 days, read-out: EC50.
The mark [3] stands for this setting: Hepatitis C virus, Huh-7, read-out: Replicon 1b % inhibition at 1 μM, 1b replicon, 1 μM compound.
[4] abbreviates: Hepatitis C virus, Huh-7, read-out: Replicon 1b % inhibition at 1 μM.
Setting [5] is: inhibition of viral replication, Huh-7 HCV replicon cells, 3 days, read-out: EC50.

Chain of cyclophilin A (P62937 whole entry, species assumed): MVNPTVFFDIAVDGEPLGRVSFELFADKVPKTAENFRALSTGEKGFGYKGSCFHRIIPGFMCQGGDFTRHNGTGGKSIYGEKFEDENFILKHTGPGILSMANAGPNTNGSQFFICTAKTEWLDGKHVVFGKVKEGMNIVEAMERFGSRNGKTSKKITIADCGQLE

With `C[C@@H]1NC(=O)[C@H](C(C)(C)F)OC(=O)C2(/C=C/c3ccc4ccc(nc4c3)[C@@H](C)NC(=O)[C@@H]3CCCN(N3)C1=O)COCOC2` [Compound 72], the IC50 on cyclophilin A was 1 to 10 µM. Further, the EC50 in experiment [1] (setting [2]) was 1.1 to 10 µM. Further, the inhibition at 1 µM in experiment [1] (setting [3]) is -6%.
In the same order, the values of `C[C@@H]1NC(=O)[C@H](C2CC2)OC(=O)C2(/C=C/c3ccc4ccc(nc4c3)[C@@H](C)NC(=O)[C@@H]3CCCN(N3)C1=O)CCC(O)CC2` (stereo partly shown) [Compound 66] are less than 0.1 µM, less than 1 µM and 97%.
The corresponding values for `C[C@@H]1NC(=O)[C@H](C)OC(=O)C(C)(C)/C=C/c2ccc3ccc(nc3c2)[C@@H](C)NC(=O)[C@@H]2CCCN(N2)C1=O` [Compound 61] are 0.101 to 1 µM, 1.1 to 10 µM and 46%.
`CC(=O)O[C@H]1CC[C@]2(/C=C/c3ccc4ccc(nc4c3)[C@@H](C)NC(=O)[C@@H]3CCCN(N3)C(=O)[C@H](C)NC(=O)[C@H](C(C)C)OC2=O)CC1` [Compound 112] registered an IC50 on cyclophilin A of less than 0.1 µM. Moreover, the EC50 in experiment [1] (setting [2]) is less than 1 µM. Besides, the inhibition at 1 µM in experiment [1] (setting [3]) was determined as 100%.
In the same order, the values of `CC(=O)CC[C@@H]1C/C=C/c2cc3cc(ccc3cn2)[C@@H](C)NC(=O)[C@@H]2CCCN(N2)C(=O)[C@H](C)NC(=O)[C@H](C(C)C)OC1=O` (mixture of isomers) [Compound 14] are less than 0.1 µM, less than 1 µM and 100%.
Consider `CC(C)[C@@H]1NCC(C)(C)/C=C/c2ccc3ccc(nc3c2)[C@@H](C)OC(=O)[C@@H]2CCCN(N2)C(=O)[C@H](C)NC1=O` [Compound 25], for which the IC50 at cyclophilin A was less than 0.1 µM. Also, the EC50 in experiment [1] (setting [2]) was less than 1 µM. The inhibition at 1 µM in experiment [1] (setting [3]) is 98%.
In the same order, the values of `CC(C)[C@@H]1OC(=O)C(C)(C)C/C=C/c2cc3cc(ccc3cn2)[C@@H](C)NC(=O)[C@@H]2CCCN(N2)C(=O)[C@H](C)NC1=O` [Compound 12] are less than 0.1 µM, less than 1 µM and 100%.
In the same order, the values of `CC1/C=C/c2cc3cc(ccc3cn2)[C@@H](C)NC(=O)[C@@H]2CCCN(N2)C(=O)[C@H](C)NC(=O)[C@H](C(C)C)OC(=O)C1C` (stereo partly shown) [Compound 11] are less than 0.1 µM, less than 1 µM and 96%.
`CCN1CCOC2(/C=C/c3ccc4ccc(nc4c3)[C@@H](C)NC(=O)[C@@H]3CCCN(N3)C(=O)[C@H](C)NC(=O)[C@H](C(C)C)OC2=O)C1` (stereo partly shown) [Compound 96] came in with an IC50 on cyclophilin A of less than 0.1 µM. In experiment [1] (Hepatitis C virus, Huh-7, 72 h), this compound registered an EC50 of less than 1 µM. Besides, the inhibition at 1 µM in experiment [1] (setting [4]) was 91%.
`CC(C)[C@@H]1N[C@H](C(F)(F)F)C(C)(C)/C=C/c2ccc3ccc(nc3c2)[C@@H](C)OC(=O)[C@@H]2CCCN(N2)C(=O)[C@H](C)NC1=O` [Compound 31] displayed an IC50 on cyclophilin A of less than 0.1 µM. For the same compound, the EC50 in experiment [1] (setting [2]) is less than 1 µM. In experiment [1] (setting [3]), the inhibition at 1 µM was 88%.
In the same order, the values of `CC(C)[C@@H]1OCCCCCc2cc3cc(ccc3cn2)[C@@H](C)OC(=O)[C@@H]2CCCN(N2)C(=O)[C@H](C)NC1=O` [Compound 24] are less than 0.1 µM, less than 1 µM and 83%.
Turning to `CO[C@H](C)[C@@H]1OC(=O)C(C)(C)/C=C/c2ccc3ccc(nc3c2)[C@@H](C)NC(=O)[C@@H]2CCCN(N2)C(=O)[C@H](C)NC1=O` [Compound 60], at cyclophilin A, the IC50 was less than 0.1 µM. The concentration for a half-maximal effect (EC50) in experiment [1] (setting [2]) is less than 1 µM. For the same compound, the inhibition at 1 µM in experiment [1] (setting [3]) stood at 96%.
In the case of `CC1NC(=O)C(C2CC2)OC(=O)C2(C=Cc3ccc4ccc(nc4c3)C(C)NC(=O)C3CCCN(N3)C1=O)CCC(O)C2` (single isomer, unassigned) [Compound 103], the IC50 at cyclophilin A is less than 0.1 µM. Further, the “Replicon 1b % inhibition at 1 μM” value in experiment [1] is 90%. In addition, the EC50 in experiment [1] (setting [2]) was less than 1 µM.
On to `CC(C)[C@@H]1OC(=O)C2(/C=C/c3ccc4ccc(nc4c3)[C@@H](C)NC(=O)[C@@H]3CCCN(N3)C(=O)[C@H](C)NC1=O)CCN(C(=O)OC(C)(C)C)CC2` [Compound 84], for which the IC50 at cyclophilin A lay within 1 to 10 µM. Further, the EC50 in experiment [1] (setting [2]) was in the range of 1.1 to 10 µM. Further, the inhibition at 1 µM in experiment [1] (setting [3]) amounted to 10%.
For the compound `CC(C)[C@@H]1OC(=O)C(C)(C)/C=C/c2ccc3ccc(nc3c2)[C@@H](C)N(C)C(=O)[C@@H]2CCCN(N2)C(=O)[C@H](C)NC1=O` [Compound 47], the concentration for half-maximal inhibition (IC50) on cyclophilin A is less than 0.1 µM. Also, the concentration for a half-maximal effect (EC50) in experiment [1] (setting [2]) was less than 1 µM. The inhibition at 1 µM in experiment [1] (setting [3]) amounted to 100%.
On to `CCC(=O)O[C@H]1CC[C@@]2(/C=C/c3ccc4ccc(nc4c3)[C@@H](C)NC(=O)[C@@H]3CCCN(N3)C(=O)[C@H](C)NC(=O)[C@H](C(C)C)OC2=O)CC1` [Compound 109], for which the IC50 on cyclophilin A is less than 0.1 µM. Moreover, the 50% effective concentration (EC50) in experiment [1] (setting [2]) is less than 1 µM. In addition, the inhibition at 1 µM in experiment [1] (setting [3]) was 99%.
The corresponding values for `C[C@@H]1NC(=O)[C@H](C2CC2)OC(=O)C(C)(C)/C=C/c2ccc3ccc(nc3c2)[C@@H](C)NC(=O)[C@@H]2CCCN(N2)C1=O` [Compound 78] are less than 0.1 µM, less than 1 µM and 99%.
The corresponding values for `C[C@@H]1NC(=O)[C@H]([C@@H](C)OC(C)(C)C)OC(=O)C(C)(C)/C=C/c2ccc3ccc(nc3c2)[C@@H](C)NC(=O)[C@@H]2CCCN(N2)C1=O` [Compound 86] are 0.101 to 1 µM, less than 1 µM and 93%.
As to `CC(C)[C@H]1C(=O)N[C@@H](C)C(=O)N2CCC[C@H](N2)C(=O)O[C@H](C)c2ccc3cnc(cc3c2)/C=C/C(C)(C)C(=O)N1C` [Compound 22], the IC50 on cyclophilin A was less than 0.1 µM.
`CC1NC(=O)C(C(C)C)OC(=O)C2(/C=C/c3ccc4ccc(nc4c3)C(C)NC(=O)C3CCCN(N3)C1=O)CCC(O)CC2` (single isomer, unassigned) [Compound 75]: in experiment [1], the “Replicon 1b % inhibition at 1 μM” value stood at 100%. For the same compound, the EC50 in experiment [1] (setting [5]) was less than 1 µM.
For `COC1CCC2(/C=C/c3ccc4ccc(nc4c3)[C@@H](C)NC(=O)[C@@H]3CCCN(N3)C(=O)[C@H](C)NC(=O)[C@H](C(C)C)OC2=O)CC1` (stereo partly shown) [Compound 92], the EC50 in experiment [1] (setting [2]) is less than 1 µM. Also, the inhibition at 1 µM in experiment [1] (setting [3]) turned out to be 100%.
At cyclophilin A, `CC(C)[C@@H]1OC(=O)C(C)(C)/C=C/c2ccc3ccc(nc3c2)CN(C)C(=O)[C@@H]2CCCN(N2)C(=O)[C@H](C)NC1=O` [Compound 33] yielded an IC50 of less than 0.1 µM.
As for `CC(C)[C@@H]1OC(=O)C(C)(C)/C=C/c2cc3cc(ccc3cn2)[C@@H](C)NC(=O)[C@@H]2CCCN(N2)C(=O)[C@H](C)NC1=O` [Compound 69], in experiment [1] (setting [2]), the EC50 is less than 1 µM. Besides, the inhibition at 1 µM in experiment [1] (setting [3]) was 100%.
With `CC(C)[C@@H]1OC(=O)C2(/C=C/c3ccc4ccc(nc4c3)[C@@H](C)NC(=O)[C@@H]3CCCN(N3)C(=O)[C@H](C)NC1=O)CN(C(=O)OC(C)(C)C)CCO2` (single isomer, unassigned) [Compound 45], the IC50 at cyclophilin A was less than 0.1 µM.
In turn, `CC(C)[C@@H]1OC(=O)C(C)(C)/C=C/c2ccc3ccc(nc3c2)[C@@H](C)OC(=O)[C@@H]2CCCN(N2)C(=O)[C@H](C)NC1=O` [Compound 19] came in with an IC50 on cyclophilin A of less than 0.1 µM.
Same read-out and setting: with `COC[C@@]1(C)/C=C/c2ccc3ccc(nc3c2)[C@@H](C)N(C)C(=O)[C@@H]2CCCN(N2)C(=O)[C@H](C)NC(=O)[C@H](C(C)C)OC1=O` [Compound 38] the figure was less than 0.1 µM.
Turning to `C[C@@H]1NC(=O)[C@H](C2CCC2)OC(=O)C2(/C=C/c3ccc4ccc(nc4c3)[C@@H](C)NC(=O)[C@@H]3CCCN(N3)C1=O)COCOC2` [Compound 64], the concentration giving a half-maximal response (EC50) in experiment [1] (Hepatitis C virus, Huh-7, 72 h) is less than 1 µM. Also, in experiment [1] (setting [4]), the inhibition at 1 µM came out at 100%.
On to `COC[C@]1(C)/C=C/c2ccc3ccc(nc3c2)[C@@H](C)NC(=O)[C@@H]2CCCN(N2)C(=O)[C@H](C)NC(=O)[C@H](C(C)C)OC1=O` [Compound 58], for which, on cyclophilin A, the IC50 is less than 0.1 µM.
Take `CC1NC(=O)C(C(C)C)OC(=O)C2(/C=C/c3ccc4ccc(nc4c3)C(C)NC(=O)C3CCCN(N3)C1=O)CCC(O)CC2` (single isomer, unassigned) [Compound 77]: the “Replicon 1b % inhibition at 1 μM” value in experiment [1] came out at 56%. Besides, the EC50 in experiment [1] (setting [5]) was less than 1 µM.
The compound `COC[C@@]1(C)/C=C/c2ccc3ccc(nc3c2)[C@@H](C)NC(=O)[C@@H]2CCCN(N2)C(=O)[C@H](C)NC(=O)[C@H](C(C)C)OC1=O` [Compound 36] yielded an IC50 on cyclophilin A of less than 0.1 µM.
On to `CC1NC(=O)C(C(C)C)OC(=O)C2(/C=C/c3ccc4ccc(nc4c3)C(C)NC(=O)C3CCCN(N3)C1=O)CCC(O)CC2` (single isomer, unassigned) [Compound 76], for which the “Replicon 1b % inhibition at 1 μM” value in experiment [1] is 69%. The EC50 in experiment [1] (setting [5]) is less than 1 µM.
Consider `CC(C)[C@@H]1OC(=O)C2(/C=C/c3ccc4ccc(nc4c3)[C@@H](C)NC(=O)[C@@H]3CCCN(N3)C(=O)[C@H](C)NC1=O)COCCOC2` [Compound 57], for which the EC50 in experiment [1] (setting [2]) was less than 1 µM. Also, the inhibition at 1 µM in experiment [1] (setting [3]) came out at 100%.
Turning to `CC(C)[C@@H]1OC(=O)C(C)(C)/C=C/c2ccc3ccc(nc3c2)CNC(=O)[C@@H]2CCCN(N2)C(=O)[C@H](C)NC1=O` [Compound 37], the IC50 on cyclophilin A was less than 0.1 µM.
Turning to `CC(C)[C@@H]1OC(=O)C2(/C=C/c3ccc4ccc(nc4c3)[C@@H](C)NC(=O)[C@@H]3CCCN(N3)C(=O)[C@H](C)NC1=O)CCOCC2` [Compound 88], the concentration for a half-maximal effect (EC50) in experiment [1] (setting [2]) is less than 1 µM. Further, the inhibition at 1 µM in experiment [1] (setting [3]) is 100%.
Turning to `CC(C)[C@@H]1OC(=O)C2(/C=C/c3ccc4ccc(nc4c3)[C@@H](C)NC(=O)[C@@H]3CCCN(N3)C(=O)[C@H](C)NC1=O)CCS(=O)(=O)CC2` [Compound 106], the EC50 in experiment [1] (setting [2]) is less than 1 µM. Besides, in experiment [1] (setting [3]), the inhibition at 1 µM was 95%.
With `CC1NC(=O)C(C(C)C)OC(=O)C2(/C=C/c3ccc4ccc(nc4c3)C(C)NC(=O)C3CCCN(N3)C1=O)CCC(O)CC2` (single isomer, unassigned) [Compound 74], in experiment [1], the “Replicon 1b % inhibition at 1 μM” value is recorded as 100%. The concentration for a half-maximal effect (EC50) in experiment [1] (setting [2]) was less than 1 µM.
